Results taken from patent US11332455B2, “α,β-unsaturated amide compound” (KYOWA KIRIN CO., LTD., priority 2015, dated 2022).

System: NCI-H226 cells, a human mesothelioma cell line
Assay: Cell growth inhibitory effect, cell counting kit 8, 6 days
Format: cell-based
Conditions: 144 h, 6 days incubation, group 100 nmol/L to 1 μmol/L (upper bound given in μmol/L)
Description: Cell growth inhibitory effect on human mesothelioma, human liver cancer, human ovarian cancer, and […]
NCI-H226 cells, a human mesothelioma cell line (ATCC, CRL-5826), NCI-H322 cells, a human lung cancer cell line (the European Collection of Authenticated Cell Cultures, 95111734), OVTOKO cells, a human ovarian cancer cell line (JCRB cell bank, JCRB1048) and HuH28, a human liver cancer cell line (JCRB cell bank, JCRB0426) were each subcultured by keeping the cell density under 80% in a RPMI1640 culture medium with 10% fetal bovine serum (FBS). NCI-H226 cells, NCI-H322 cells and SSP-25 cells were each suspended in the RPM11640 culture medium mentioned above, and plated to a 96-well flat-bottom plate at 500 cells/well in each well, and incubated at 37° C. in an incubator with 5% CO2 for one day. After the incubation, the evaluation of cell growth inhibitory activity was started. OVTOKO cells were suspended in the RPMI1640 culture medium mentioned above, and plated to a 96-well flat-bottom plate at 250 cells/well in each well, and incubated it at 37° C. in an incubator with 5% CO2 for one day. After the incubation, the evaluation of the cell growth inhibitory activity was started. The next day, a test compound was serially diluted to 5 times of its final concentration in the RPM11640 culture medium mentioned above, and the diluted solution was added to each well. In this case, the final concentration of DMSO in each well was adjusted to 0.1%. After the test compound was added, cells were incubated at 37° C. in an incubator with 5% CO2 for 6 days. At the addition of the test compound and 6 days after the addition, the cell counting measurement was performed using a cell counting kit 8 (made by DOJINDO) according to a protocol equivalent to DOJINDO's recommendation. A reagent contained in the kit was added to each plate and color reaction was performed for 2 or 3 hours at 37° C. in an incubator with 5% CO2. After the reaction, an absorbance at wavelength of 450 nm was measured using a microplate reader. A growth inhibition rate was calculated according to the following formula, from which the concentration of a test compound at which cell growth was inhibited by 50% (GI50 value) was determined.

GI50 [nM]	Compound
100 to 1000	C=CC(=O)NCc1cc(Oc2ccc(C(F)(F)F)cc2)cc2cccnc12 [Compound 221, N-([6-{4-(Trifluoromethyl)phenoxy}quinolin-8-yl]methyl)acrylamide]
100 to 1000	Cc1c(Oc2ccc(C(F)(F)F)cc2)ccc2c1OCCC2NC(=O)/C=C/C(F)(F)F (stereo not shown) [Compound 29, (E)-4,4,4-Trifluoro-N-[8-methyl-7-{4-(trifluoromethyl)phenoxy}chroman-4-yl]-2-butenamide]
100 to 1000	C=CC(=O)N[C@H]1CC[C@@H](Oc2ccc(C(F)(F)F)cc2)c2nc(CC)ccc21 (relative stereo) [Compound 186, cis-N-[2-ethyl-8-{4-(trifluoromethyl)phenoxy}-5,6,7,8-tetrahydroquinolin-5-yl]acrylamide]
100 to 1000	C=CC(=O)NC1CCOc2c1ccc(Oc1ccc(C(F)(F)F)nc1)c2OCC (stereo not shown) [Compound 172, N-(8-Ethoxy-7-[{6-(trifluoromethyl)pyridin-3-yl}oxy]chroman-4-yl)acrylamide]
100 to 1000	C=CC(=O)NCc1cc(Oc2ccc(C(F)(F)F)cc2)nc2ccccc12 [Compound 146, N-([2-{4-(Trifluoromethyl)phenoxy}quinolin-4-yl]methyl)acrylamide]
100 to 1000	C=CC(=O)NCC1CCOc2cc(Oc3ccc(Cl)cc3)ccc21 (stereo not shown) [Compound 26, N-[{7-(4-Chlorophenoxy)chroman-4-yl}methyl]acrylamide]
100 to 1000	C=CC(=O)NC1CCOc2cc(Oc3ccc(Cl)cc3)c(C)cc21 (stereo not shown) [Compound 23, N-{7-(4-Chlorophenoxy)-6-methylchroman-4-yl}acrylamide]

More lines, now with the values behind:

Compound	GI50 [nM]
C=CC(=O)NCc1ccc(Oc2ccc(Cl)nc2)c2ncccc12 [Compound 142, N-([8-{(6-Chloropyridin-3-yl)oxy}quinolin-5-yl]methyl)acrylamide]	100 to 1000
C=CC(=O)NC1CCOc2cc(OCC3CCCCC3)ccc21 (stereo not shown) [Compound 16, N-{7-(Cyclohexylmethoxy)chroman-4-yl}acrylamide]	100 to 1000
C=CC(=O)Nc1ccc(OCc2ccccc2)c2ncccc12 [Compound 123, N-{8-(Benzyloxy)quinolin-5-yl}acrylamide]	100 to 1000
C=CC(=O)NC1COc2c(cccc2Oc2ccc(Cl)nc2)C1 (stereo not shown) [Compound 49, N-[8-{(6-Chloropyridin-3-yl)oxy}chroman-3-yl]acrylamide]	100 to 1000
C=CC(=O)N[C@H]1CC[C@@H](Oc2ccccc2)c2ncccc21 (relative stereo) [Compound 67, cis-N-(8-Phenoxy-5,6,7,8-tetrahydroquinolin-5-yl)acrylamide]	100 to 1000
C=CC(=O)Nc1cncc(Oc2ccc(OC(C)C)cc2)c1 [Compound 103, N-{5-(4-Isopropoxyphenoxy)pyridin-3-yl}acrylamide]	100 to 1000
C=CC(=O)Nc1ccc(OC2CCC(F)(F)CC2)c2ncccc12 [Compound 120, N-[8-{(4,4-Difluorocyclohexyl)oxy}quinolin-5-yl]acrylamide]	100 to 1000
C=CC(=O)Nc1cncc(Oc2cccc(OCC)c2)c1 [Compound 101, N-{5-(3-Ethoxyphenoxy)pyridin-3-yl}acrylamide]	100 to 1000
C=CC(=O)Nc1cncc(Oc2ccc(OCC)cc2)c1 [Compound 102, N-{5-(4-Ethoxyphenoxy)pyridin-3-yl}acrylamide]	100 to 1000
C=CC(=O)NC1COc2c(cccc2Oc2ccc(C(F)(F)F)nn2)C1 (stereo not shown) [Compound 156, N-(8-[{6-(trifluoromethyl)pyridazin-3-yl}oxy]chroman-3-yl)acrylamide]	100 to 1000
C=CC(=O)NC1CCOc2c1ccc(OCc1ccccc1)c2F (stereo not shown) [Compound 166, N-{7-(Benzyloxy)-8-fluorochroman-4-yl}acrylamide]	100 to 1000
C=CC(=O)NCc1cc(Oc2ccc(Cl)cc2)nc2ccccc12 [Compound 144, N-[{2-(4-Chlorophenoxy)quinolin-4-yl}methyl]acrylamide]	100 to 1000
C=CC(=O)Nc1cc(Oc2ccc(Cl)cc2)cnc1C [Compound 93, N-{5-(4-Chlorophenoxy)-2-methylpyridin-3-yl}acrylamide]	100 to 1000
C=CC(=O)Nc1cnc(C)c(Oc2ccc(Cl)cc2)c1 [Compound 92, N-{5-(4-Chlorophenoxy)-6-methylpyridin-3-yl}acrylamide]	100 to 1000
C=CC(=O)Nc1cncc(Oc2ccc(Cl)cc2)c1 [Compound 94, N-{5-(4-chlorophenoxy)pyridin-3-yl}acrylamide]	100 to 1000
C=CC(=O)Nc1cncc(Oc2ccc(Cl)c(Cl)c2)c1 [Compound 105, N-{5-(3,4-Dichlorophenoxy)pyridin-3-yl}acrylamide]	100 to 1000
C=CC(=O)NCc1ccc(Oc2ccc(C3CC3)cc2)c2ncccc12 [Compound 136, N-[{8-(4-Cyclopropylphenoxy)quinolin-5-yl}methyl]acrylamide]	100 to 1000
C=CC(=O)NC1CCOc2cc(OCc3ccccc3)ccc21 (stereo not shown) [Compound 14, N-{7-(Benzyloxy)chroman-4-yl}acrylamide]	100 to 1000

Same assay, conditions: 144 h, 6 days incubation, group less than 100 nmol/L

GI50 [nM]	Compound
< 100	C=CC(=O)NC1CCOc2c1ccc(Oc1ccc(Cl)cc1)c2F (stereo not shown) [Compound 30, N-{7-(4-Chlorophenoxy)-8-fluorochroman-4-yl}acrylamide]
< 100	C=CC(=O)NC1CCOc2c1ccc(Oc1ccc(C(F)(F)F)cc1)c2F (stereo not shown) [Compound 239, N-[8-Fluoro-7-{4-(trifluoromethyl)phenoxy}chroman-4-yl]acrylamide]
< 100	C=CC(=O)NC1COc2cccc(Oc3ccc(Cl)cc3)c2C1 (stereo not shown) [Compound 34, N-{5-(4-Chlorophenoxy)chroman-3-yl}acrylamide]
< 100	C=CC(=O)NC1CCOc2cc(Oc3ccc(C(F)(F)F)c(Cl)n3)ccc21 (stereo not shown) [Compound 11, N-(7-[{6-Chloro-5-(trifluoromethyl)pyridin-2-yl}oxy]chroman-4-yl)acrylamide]
< 100	C=CC(=O)N[C@H]1C[C@H](C)Oc2cc(Oc3ccc(C(F)(F)F)cc3)ccc21 (relative stereo) [Compound 20, trans-N-[2-Methyl-7-{4-(trifluoromethyl)phenoxy}chroman-4-yl]acrylamide]
< 100	C=CC(=O)NC1COc2c(cccc2Oc2cccc(C(F)(F)F)c2)C1 (stereo not shown) [Compound 43, N-[8-{3-(Trifluoromethyl)phenoxy}chroman-3-yl]acrylamide]
< 100	C=CC(=O)NC1CCOc2c1ccc(Oc1ccc(C(F)(F)F)cc1)c2OC (stereo not shown) [Compound 237, N-[8-Methoxy-7-{4-(trifluoromethyl)phenoxy}chroman-4-yl]acrylamide]
< 100	C=CC(=O)N[C@H]1C[C@@H](C)Oc2cc(Oc3ccc(C(F)(F)F)cc3)ccc21 (relative stereo) [Compound 19, cis-N-[2-Methyl-7-{4-(trifluoromethyl)phenoxy}chroman-4-yl]acrylamide]
< 100	C=CC(=O)NC1COc2c(Oc3ccc(Cl)cc3)cccc2C1=O (stereo not shown) [Compound 39, N-{8-(4-Chlorophenoxy)-4-oxochroman-3-yl}acrylamide]
< 100	C=CC(=O)NC1COc2c(cccc2Oc2ccc(C(F)(F)F)cn2)C1 (stereo not shown) [Compound 50, N-(8-[{5-(Trifluoromethyl)pyridin-2-yl}oxy]chroman-3-yl)acrylamide]
< 100	C=CC(=O)NC1CCOc2cc(Oc3ccccc3)ccc21 (stereo not shown) [Compound 1, N-(7-phenoxychroman-4-yl)acrylamide]
< 100	C=CC(=O)NC1COc2c(cccc2Oc2ccc(C(F)(F)F)cc2)C1 (stereo not shown) [Compound 44, N-[8-{4-(Trifluoromethyl)phenoxy}chroman-3-yl]acrylamide]
< 100	C=CC(=O)NC1CCOc2c1ccc(Oc1ccc(F)cc1)c2F (stereo not shown) [Compound 167, N-{8-Fluoro-7-(4-fluorophenoxy)chroman-4-yl}acrylamide]
< 100	C=CC(=O)Nc1cncc(Oc2ccc(OC(F)(F)F)cc2)c1 [Compound 100, N-[5-{4-(Trifluoromethoxy)phenoxy}pyridin-3-yl]acrylamide]
< 100	C=CC(=O)NC1CCOc2cc(Oc3ccc(Cl)cc3)ccc21 (stereo not shown) [Compound 3, N-{7-(4-Chlorophenoxy)chroman-4-yl}acrylamide]

Second part, the compound before the results:

Compound	GI50 [nM]
C=CC(=O)NCc1ccc(Oc2cccc(Cl)c2)c2ncccc12 [Compound 133, N-[{8-(3-chlorophenoxy)quinolin-5-yl}methyl]acrylamide]	< 100
C=CC(=O)NC1COc2c(cc(Br)cc2Oc2ccc(C(F)(F)F)nc2)C1 (stereo not shown) [Compound 231, N-(6-Bromo-8-[{6-(trifluoromethyl)pyridin-3-yl}oxy]chroman-3-yl)acrylamide]	< 100
C=CC(=O)NC1COc2c(cccc2Oc2cnc(Cl)c(C)c2)C1 (stereo not shown) [Compound 56, N-[8-{(6-Chloro-5-methylpyridin-3-yl)oxy}chroman-3-yl]acrylamide]	< 100
